Data reported in US20020137929A1, “1 - (3-heterocyclylphenyl) isothiourea, -isourea, -guanidine and -amidine herbicidal agents” (Intellectual Property Department, BASF Aktiengesellschaft, priority 1998, published 2002).

Tests used:
[1] = tested on: AMBEL (Ragweed, Common); assay: Preemergence herbicidal evaluation; format: in vivo, Ambrosia artemisifolia; details: rated 4-5 weeks after treatment
In short: (§1)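 Greenhouse preemergence test: seed-soil mix sown on ~1 inch soil; aqueous acetone spray at equivalent of ~0.0156–0.500 kg/ha; greenhouse-held and watered; scored 0–9 visually at 4–5 weeks.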

[2] = tested on: ORYSAT (Rice, Tebonnet); assay: Postemergence herbicidal evaluation; format: in vivo, Oryza sativa, (L.) Tebonnet
In short: (§2)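 Visual 0–9 rating versus control (stand, vigor, malformation, size, chlorosis, overall appearance), taken four to five weeks post-spray. Two-week-old seedlings received roughly 0.0156–0.500 kg/ha active in acetone/water (50/50) with 0.5% TWEEN 20 via nozzle at 40 psi.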

[3] = tested on: ECHCG (Barnyardgrass); assay: Postemergence herbicidal evaluation; format: in vivo, Echinochloa crus-galli
In short: as §2

[4] = tested on: CYPIR (Rice Flatsedge); assay: Postemergence weed control under flooded paddy conditions; format: in vivo, Cyperus iria; details: postemergence weeds, 3-4 weeks after treatment
In short: (§3)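 Weeds 3 to 5 cm tall and rice seedlings at the 1.5 to 2.5 leaf stage were flooded, with water held 1.5 to 3 cm above the soil. Compounds in 50/50 v/v aqueous/acetone went into the flood water at about 0.0313 to 0.500 kg/ha. Visual 0-9 ratings versus control were made 3 to 4 weeks later.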

[5] = tested on: GALAP (Galium); assay: Preemergence herbicidal evaluation; format: in vivo, Galium aparine; details: rated 4-5 weeks after treatment
In short: as §1

[6] = tested on: AMBEL (Ragweed, Common); assay: Postemergence herbicidal evaluation; format: in vivo, Ambrosia artemisifolia
In short: as §2

[7] = tested on: ABUTH (Velvetleaf); assay: Postemergence herbicidal evaluation; format: in vivo, Abutilon theophrasti
In short: as §2

[8] = tested on: CYPSE (Flatsedge); assay: Preemergence weed control under flooded paddy conditions; format: in vivo, Cyperus serotinus; details: rated 3-4 weeks after treatment
In short: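 Ratings on a 0-9 visual scale cover stand, vigor, malformation, size, chlorosis and overall appearance relative to a control, taken three to four weeks post-treatment. Application was into flood water over freshly sown silt loam at roughly 0.0313 to 0.500 kg/ha.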

[9] = tested on: ZEAMX (Corn, Field); assay: Postemergence herbicidal evaluation; format: in vivo, Zea mays
In short: as §2

[10] = tested on: CASOB (Sicklepod); assay: Preemergence herbicidal evaluation; format: in vivo, Cassia obtusifolia; details: rated 4-5 weeks after treatment
In short: as §1

[11] = tested on: CHEAL (Lambsquarters, Common); assay: Preemergence herbicidal evaluation; format: in vivo, Chenopodium album; details: rated 4-5 weeks after treatment
In short: as §1

[12] = tested on: GLXMAW (Soybean, Williams); assay: Postemergence herbicidal evaluation; format: in vivo, Glycine max, (L.) Merr. cv Williams
In short: as §2

[13] = tested on: CYPSE (Flatsedge); assay: Postemergence weed control under flooded paddy conditions; format: in vivo, Cyperus serotinus; details: postemergence weeds, 3-4 weeks after treatment
In short: as §3

[14] = tested on: CHEAL (Lambsquarters, Common); assay: Postemergence herbicidal evaluation; format: in vivo, Chenopodium album
In short: as §2

SMILES: COC(=O)CCN1C(=O)CSC1=Nc1cc(-n2c(=O)cc(C(F)(F)F)n(C)c2=O)c(F)cc1Cl [Compound 28, Methyl 2-{{2-chloro-5-[3,6-dihydro-3-methyl-2,6-dioxo-4-(trifluoromethyl)-1(2H)-pyrimidinyl]-4-fluorophenyl}imino}-4-oxo-3-thiazolidinepropionate]
- Preemergence herbicidal rating AMBEL ([1]; rate 0.0625 kg/ha): 0.0
- Preemergence herbicidal rating AMBEL ([1]; rate 0.1250 kg/ha): 0.0
- Preemergence herbicidal rating AMBEL ([1]; rate 0.2500 kg/ha): 7.0
- Postemergence herbicidal rating ORYSAT ([2]; Rate 0.0158 kg/ha): 2.5
- Postemergence herbicidal rating ORYSAT ([2]; Rate 0.0315 kg/ha): 3.5
- Postemergence herbicidal rating ORYSAT ([2]; Rate 0.0630 kg/ha): 6.0
- Postemergence herbicidal rating ECHCG ([3]; Rate 0.0158 kg/ha): 0.0
- Postemergence herbicidal rating ECHCG ([3]; Rate 0.0315 kg/ha): 5.0
- Postemergence herbicidal rating ECHCG ([3]; Rate 0.0630 kg/ha): 9.0
- Herbicidal rating CYPIR ([4]; rate 0.0313 kg/ha): 9.0
- Herbicidal rating CYPIR ([4]; rate 0.0625 kg/ha): 9.0
- Herbicidal rating CYPIR ([4]; rate 0.1250 kg/ha): 9.0
- Herbicidal rating CYPIR ([4]; rate 0.2500 kg/ha): 9.0
- Preemergence herbicidal rating GALAP ([5]; rate 0.0625 kg/ha): 0.0
- Preemergence herbicidal rating GALAP ([5]; rate 0.1250 kg/ha): 0.0
- Preemergence herbicidal rating GALAP ([5]; rate 0.2500 kg/ha): 9.0
- Postemergence herbicidal rating AMBEL ([6]; Rate 0.0158 kg/ha): 4.0
- Postemergence herbicidal rating AMBEL ([6]; Rate 0.0315 kg/ha): 4.0
- Postemergence herbicidal rating AMBEL ([6]; Rate 0.0630 kg/ha): 9.0
- Postemergence herbicidal rating ABUTH ([7]; Rate 0.0158 kg/ha): 9.0
- Postemergence herbicidal rating ABUTH ([7]; Rate 0.0315 kg/ha): 9.0
- Postemergence herbicidal rating ABUTH ([7]; Rate 0.0630 kg/ha): 9.0
- Herbicidal rating CYPSE ([8]; 0.0313 kg/ha): 0.0
- Herbicidal rating CYPSE ([8]; 0.0625 kg/ha): 0.0
- Herbicidal rating CYPSE ([8]; 0.1250 kg/ha): 0.0
- Herbicidal rating CYPSE ([8]; 0.2500 kg/ha): 0.0
- Postemergence herbicidal rating ZEAMX ([9]; Rate 0.0158 kg/ha): 7.5
- Postemergence herbicidal rating ZEAMX ([9]; Rate 0.0315 kg/ha): 7.5
- Postemergence herbicidal rating ZEAMX ([9]; Rate 0.0630 kg/ha): 9.0
- Preemergence herbicidal rating CASOB ([10]; rate 0.0625 kg/ha): 0.0
- Preemergence herbicidal rating CASOB ([10]; rate 0.1250 kg/ha): 0.0
- Preemergence herbicidal rating CASOB ([10]; rate 0.2500 kg/ha): 0.0
- Preemergence herbicidal rating CHEAL ([11]; rate 0.0625 kg/ha): 0.0
- Preemergence herbicidal rating CHEAL ([11]; rate 0.1250 kg/ha): 9.0
- Preemergence herbicidal rating CHEAL ([11]; rate 0.2500 kg/ha): 9.0
- Postemergence herbicidal rating GLXMAW ([12]; Rate 0.0158 kg/ha): 6.5
- Postemergence herbicidal rating GLXMAW ([12]; Rate 0.0315 kg/ha): 8.0
- Postemergence herbicidal rating GLXMAW ([12]; Rate 0.0630 kg/ha): 8.5
- Herbicidal rating CYPSE ([13]; rate 0.0313 kg/ha): 0.0
- Herbicidal rating CYPSE ([13]; rate 0.0625 kg/ha): 0.0
- Herbicidal rating CYPSE ([13]; rate 0.1250 kg/ha): 0.0
- Herbicidal rating CYPSE ([13]; rate 0.2500 kg/ha): 0.0
- Postemergence herbicidal rating CHEAL ([14]; Rate 0.0158 kg/ha): 2.0
- Postemergence herbicidal rating CHEAL ([14]; Rate 0.0315 kg/ha): 4.0
- Postemergence herbicidal rating CHEAL ([14]; Rate 0.0630 kg/ha): 4.0
